According to patent US9821002B2, “Method for alleviating radiation injury with isorhamnetin-3-O-β-D-glucoside” (Sinotai Oncology Associate., Ltd., priority 2015, dated 2017):

How the values were obtained:
NMuMG cells = assay: Apoptosis assay (FITC Annexin V/PI) after X-ray irradiation; format: cell-based, mouse; conditions: 2 h pretreatment, X-ray 15 Gy, 72 hours, mean ± SEM
Excerpt: (§1) Four groups of BNL CL.2 cells (i.e., a normal control group referred to as Normal Control Group 1-A, an X-ray control group referred to as X-Ray Control Group 1-A, and two experimental groups referred to as Experimental Groups 1-A to 2-A), and six groups of NMuMG cells (i.e., a normal control group referred to as Normal Control Group 1-B, an X-ray control group referred to as X-Ray Control Group 1-B, two isorhamnetin groups referred to as Isorhamnetin Groups 1 to 2, and two experimental groups referred to as Experimental Groups 1-B to 2-B), were prepared based on the procedure set forth in “Source and cultivation of cell lines” of “Experimental materials”. BNL CL.2 cells in each group were cultivated using 5 mL of a corresponding medium shown in Table 1 and a 6-cm Petri dish in an amount of 2×10^5 cells per dish. Likewise, NMuMG cells in each group were cultivated using 5 mL of a corresponding medium shown in Table 1 and a 6-cm Petri dish in an amount of 2.5×10^5 cells per dish. The cultivation was conducted in an incubator (37° C., 5% CO2) for 24 hours.
(§2) Subsequently, medium was replaced with fresh medium. The obtained cultures in Experimental Groups 1-A, 1-B, 2-A, and 2-B were pretreated with the stock solution of isorhamnetin-3-O-β-D-glucoside, and the obtained cultures in Isorhamnetin Groups 1 to 2 were pretreated with the stock solution of isorhamnetin.
(§3) The culture in each group was then cultivated in an incubator (37° C., 5% CO2) for two hours. The resultant culture was used for the following experiments in sections B to D.
(§4) The cultures in X-Ray Control Group 1-A, X-Ray Control Group 1-B, Isorhamnetin Group 1, Isorhamnetin Group 2, Experimental Group 1-A, Experimental Group 1-B, Experimental Group 2-A, and Experimental Group 2-B, prepared according to section A of “Experimental procedures” in this example, were subjected to X-ray irradiation using a linear accelerator at a dose of 15 Gy. The cultures in Normal Control Groups 1-A and 1-B received no X-ray irradiation treatment. The culture of BNL CL.2 cells in each group was cultivated using a 6-cm Petri dish in an incubator (37° C., 5% CO2) for 96 hours, and the culture of NMuMG cells in each group was cultivated using a 6-cm Petri dish in an incubator (37° C., 5% CO2) for 72 hours. 1 mL of trypsin-EDTA was added to the culture in each group so as to detach the cells from the bottom of the Petri dish. Following this, 1 mL of a fresh medium (corresponding to the medium described in Table 1) was added to neutralize the activity of the trypsin, and the resultant cell suspension was transferred to a centrifuge tube with a pipette, followed by centrifugation at 1200 rpm for three minutes. The supernatant was removed, and the cell pellet thus obtained was washed once with cold PBS (pH 7.4), followed by centrifugation at 1200 rpm for 3 minutes. The supernatant was removed, and 100 μL of cold Annexin V binding buffer (BD Pharmingen™) was added to sufficiently re-suspend the cell pellet thereby obtaining a cell suspension having a cell concentration of 1.0×10^6 cells/mL. Afterward, 5 μL of FITC Annexin V (BD Pharmingen™) and 5 μL of propidium iodide (PI) staining solution (BD Pharmingen™) were added to the obtained cell suspension, followed by mixing evenly and standing in the dark at 4° C. for 30 minutes so as to obtain stained cells.
(§5) Subsequently, the stained cells were analyzed using BD Accuri™ C6 flow cytometry, in which cells that could be stained with FITC Annexin V but not with PI (i.e., FITC Annexin V positive and PI negative) represented cells that were induced with early apoptosis; cells stained with both FITC Annexin V and PI (i.e., FITC Annexin V positive and PI positive) represented cells that were induced with late apoptosis; and cells that could not be stained with FITC Annexin V and PI (i.e., FITC Annexin V negative and PI negative) represented viable cells. The number of stained cells was calculated using BD Accuri™ C6 software. […]

BNL CL.2 cells = assay: as above; format: cell-based, mouse; conditions: 2 h pretreatment, X-ray 15 Gy, 96 hours, mean ± SEM
Excerpt: as §1, §2, §3, §4, §5

COc1cc(-c2oc3cc(O)cc(O)c3c(=O)c2O[C@@H]2O[C@H](CO)[C@@H](O)[C@H](O)[C@H]2O)ccc1O [isorhamnetin-3-O-β-D-glucoside]
Apoptosis percentage (NMuMG cells; 15 μM): 17.77 ± 0.88 %
Apoptosis percentage (NMuMG cells; 30 μM): 16.5 ± 0.62 %
Apoptosis percentage (BNL CL.2 cells; 5 μM): 30.28 ± 3.09%
Apoptosis percentage (BNL CL.2 cells; 30 μM): 29.35 ± 1.92 %
